Where two headings read alike, the source gives them in different places.
Assays:
[1] = biological target: T1, mPRα (Homo sapiens, UniProt Q86WK9); experiment: cell-based; conditions: for activation of mPRα, alterations at the 17 and 21 positions of the pregnane ring (in words): further analysis of mPRα (pRS316 plasmid, 2% galactose per FIG. 7C); for agonist activity on mPRα (in words): FET3-lacZ, steroids up to 10 μM
T1 construct: Full length and truncated mPRγ and mPRα were expressed in wild type cells grown in 2% galactose from the pGREG536 vector; expressed in transfected cells; host or cells: Saccharomyces cerevisiae (BY4742 wild type; also gpa mutants), GAL1-driven plasmids (TPI1 promoter in pJK90)
T1 sequence (Q86WK9 1-346): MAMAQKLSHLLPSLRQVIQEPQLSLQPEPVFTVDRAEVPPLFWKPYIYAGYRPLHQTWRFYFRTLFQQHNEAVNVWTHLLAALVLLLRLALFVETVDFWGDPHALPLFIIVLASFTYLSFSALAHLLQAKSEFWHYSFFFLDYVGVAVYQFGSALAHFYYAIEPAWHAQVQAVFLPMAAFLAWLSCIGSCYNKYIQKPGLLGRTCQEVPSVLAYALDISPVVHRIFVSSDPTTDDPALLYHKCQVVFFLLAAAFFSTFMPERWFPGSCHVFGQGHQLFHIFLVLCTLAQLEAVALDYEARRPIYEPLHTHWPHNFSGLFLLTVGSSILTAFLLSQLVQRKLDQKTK
Text: Plasmids and primers. Human PAQRs were cloned into various vectors by PCR from commercially/publically available cDNAs. […] The OST4 open reading frame in pJK90 was replaced with the PAQR6 and mPRα open reading frames by gap repair. Primers for all cloning reactions are listed herein. Proteins expressed in pYES260 have an N-terminal 6×-histidine tag followed by a TEV protease cleavage site. Proteins expressed in pGREG536 have an N-terminal 7×-HA tag. Proteins expressed in the pRS316 vector are untagged. The pYES260, pRS316 and pGREG536 vectors allow for galactose-inducible expression via the GAL1 promoter. […] A pRS316-based plasmid containing the STE2 gene under the control of the GAL1 promoter (Feng et al., 2000) was kindly provided by Dr. Nicholas G. Davis (Wayne State University).
Assays and growth conditions. Strains were maintained using standard protocol and grown in synthetic defined (SD) media with the appropriate amino acids to match the auxotrophies of the individual strains. […] In brief, overnights of cells grown in SD-glucose media were re-inoculated into iron-deficient LIM to induce the expression of FET3. […] All ligands were added to the growth medium upon re-inoculation into LIM. For experiments in which steroids were added as ligands, steroids were added from ethanol stocks and “untreated” controls are actually treated with an equal volume of ethanol to control for vehicle effects. […] All experiments were performed at least three times and a representative experiment is shown. EC50 values were obtained using the web-based BioDataFit software using sigmoidal curve-fitting. (web site changbioscience.com/stat/ec50.html)

[2] = biological target: T2, mPRγ (Homo sapiens, UniProt Q9NXK6); experiment: FET3-lacZ reporter repression in yeast expressing mPRγ; type: cell-based; conditions: for agonist activity on mPRγ (in words): FET3-lacZ, steroids up to 10 μM
T2 construct: Full length and truncated mPRγ and mPRα were expressed in wild type cells grown in 2% galactose from the pGREG536 vector; expressed in transfected cells; host or cells: Saccharomyces cerevisiae (BY4742 wild type; also gpa mutants), GAL1-driven plasmids
T2 sequence (Q9NXK6 1-330): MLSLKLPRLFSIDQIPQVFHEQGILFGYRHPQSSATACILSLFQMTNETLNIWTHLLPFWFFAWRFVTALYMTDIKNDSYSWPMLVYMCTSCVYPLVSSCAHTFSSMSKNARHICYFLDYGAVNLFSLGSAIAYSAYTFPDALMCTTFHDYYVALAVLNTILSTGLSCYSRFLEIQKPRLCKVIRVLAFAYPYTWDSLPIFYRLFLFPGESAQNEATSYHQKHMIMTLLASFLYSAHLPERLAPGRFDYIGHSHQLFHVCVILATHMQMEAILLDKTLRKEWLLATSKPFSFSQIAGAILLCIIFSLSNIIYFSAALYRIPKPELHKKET
Text: Plasmids and primers. Human PAQRs were cloned into various vectors by PCR from commercially/publically available cDNAs. PAQRs were cloned into the pYES260 (Melcher, 2000), pRS316 (Liu et al., 1992) or pGREG536 (Jansen et al., 2005) expression vectors using gap repair. The pJK90 plasmid containing a Dual Topology Reporter (DTR)-tagged OST4 gene driven by the constitutive TPI1 promoter was kindly provided by Dr. Gunnar von Heijne (Stockholm University) (Kim et al., 2003). The OST4 open reading frame in pJK90 was replaced with the PAQR6 and mPRα open reading frames by gap repair. Primers for all cloning reactions are listed herein. Proteins expressed in pYES260 have an N-terminal 6×-histidine tag followed by a TEV protease cleavage site. Proteins expressed in pGREG536 have an N-terminal 7×-HA tag. Proteins expressed in the pRS316 vector are untagged. The pYES260, pRS316 and pGREG536 vectors allow for galactose-inducible expression via the GAL1 promoter. […] The FET3-lacZ plasmid was previously described (Kupchak et al., 2007). Plasmids derived from pADM4 carrying hyperactive alleles of Gpa1p (Gpa1p^Q323L) (Slessareva et al., 2006) and Gpa2p (Gpa2p^Q300L) (Harashima et al., 2002) driven by the ADH1 promoter were kindly provided by Dr. Henrik Dohlman (UNC Chapel Hill). A pRS316-based plasmid containing the STE2 gene under the control of the GAL1 promoter (Feng et al., 2000) was kindly provided by Dr. Nicholas G. Davis (Wayne State University).
(§1) Assays and growth conditions. Strains were maintained using standard protocol and grown in synthetic defined (SD) media with the appropriate amino acids to match the auxotrophies of the individual strains. Low Iron Medium (LIM) contains EDTA to limit iron-bioavailability and its composition has been previously described (Kupchak et al., 2007). […] In brief, overnights of cells grown in SD-glucose media were re-inoculated into iron-deficient LIM to induce the expression of FET3. 2% galactose was used as a carbon source to induce full expression of PAQR genes driven by the GAL1 promoter, while 0.05% galactose/1.95% raffinose was used for reduced PAQR expression. All ligands were added to the growth medium upon re-inoculation into LIM. For experiments in which steroids were added as ligands, steroids were added from ethanol stocks and “untreated” controls are actually treated with an equal volume of ethanol to control for vehicle effects. Cells were allowed to grow to mid-log phase at which time the activity of the FET3 gene was monitored using a FET3-lacZ promoter-reporter construct. lacZ activities are presented as a percentage of activity seen in untreated cells expressing the appropriate empty expression vector control. For individual experiments, each data point has been done in triplicate and the error bars represent +/−1 standard deviation. All experiments were performed at least three times and a representative experiment is shown. EC50 values were obtained using the web-based BioDataFit software using sigmoidal curve-fitting. (web site changbioscience.com/stat/ec50.html)

[3] = tested on: FET3; experiment: FET3-lacZ reporter in wild type yeast carrying empty expression plasmid; type: cell-based, Saccharomyces cerevisiae; conditions: no human PAQR
Text: as §1

[4] = read-out: EC50 for the activation of mPRα

Structure (SMILES) | activation of mPRα, alterations at the 17 and 21 positions of the pregnane ring (in words) [1] | EC50 [1, 4] | agonist activity on mPRα (in words) [1] | agonist activity on mPRγ (in words) [2] | also measured
C[C@]12CCC(=O)C=C1CC[C@@H]1[C@@H]2[C@@H](O)C[C@@]2(C)[C@H]1CC[C@]2(O)C(=O)CO [11β,17α,21-trihydroxyprogesterone] | ineffective agonist |  |  |  | 
C[C@]12CCC(=O)C=C1CC[C@@H]1[C@@H]2CC[C@@]2(C)[C@H]1CC[C@]2(O)C(=O)CO [17α,21-dihydroxyprogesterone] | similarly effective activators | ~0.01 µM |  |  | 
C[C@]12CC[C@H]3[C@@H](CCC4=CC(=O)CC[C@@]43C)[C@@H]1CC[C@@H]2C(=O)CO [21-hydroxyprogesterone] | similarly effective activators | ~0.01 µM |  |  | 
CC#C[C@]1(O)CC[C@H]2[C@@H]3CCC4=CC(=O)CCC4=C3[C@@H](c3ccc(N(C)C)cc3)C[C@@]21C [RU-486, Mifepristone] |  |  | weak agonist | weak agonist | EC50 ([1]; EC50, mPRα, ligand alone): 11 µM; increase in the EC50 of progesterone for the activation of mPRγ ([2]; exposure of cells to 100 nM RU-486): 15 fold; antagonism of mPRγ ([2]; in the presence of 100 nM progesterone, effect disappears at higher concentrations): weakly antagonizes; EC50 ([2]; mPRγ column of Table 4, ligand alone): 6.8 µM; EC50 ([2]; mPRγ, weak agonist at high concentrations): > 5 µM; effect of ligand on FET3 in cells carrying empty expression plasmid [3]: had no effect
C[C@]12CC[C@H]3[C@@H](CCC4=CC(=O)CC[C@@]43C)[C@@H]1CC[C@@H]2O [testosterone] |  |  | no agonist activity | no agonist activity | increase of the EC50 of progesterone for mPRγ ([2]; in the presence of 10 μM of the named steroid): 10 fold

Reference: patent US8809001B2, “High throughput assays for inhibitors and activators of PAQR receptors” (University of Florida Research Foundation, Inc., priority 2007, dated 2014)
